pIC50: −log10 of the molar value. Entries after “also recorded” stand apart in the source; their conditions may differ. Read-outs that look alike come from different tables or passages of the source.
Legend:
[1] = test system: HepG2 cells; conditions: human
[2] = target: T1, HIBCH (Homo sapiens, UniProt Q6NVY1); assay: dCCMS and dose-dependent capturing, HepG2 lysate; assay type: binding; design: performing CCMS experiments in the hepatoma-derived cell line HepG2; host or cells: HepG2 lysate; conditions: for competition of HIBCH capture (dCCMS): CPT-224 1 μM, competitor 50 μM, HepG2 lysate; for binding to HIBCH: dCCMS (FIG. 5, FIG. 6)
T1 sequence (Q6NVY1 33-386): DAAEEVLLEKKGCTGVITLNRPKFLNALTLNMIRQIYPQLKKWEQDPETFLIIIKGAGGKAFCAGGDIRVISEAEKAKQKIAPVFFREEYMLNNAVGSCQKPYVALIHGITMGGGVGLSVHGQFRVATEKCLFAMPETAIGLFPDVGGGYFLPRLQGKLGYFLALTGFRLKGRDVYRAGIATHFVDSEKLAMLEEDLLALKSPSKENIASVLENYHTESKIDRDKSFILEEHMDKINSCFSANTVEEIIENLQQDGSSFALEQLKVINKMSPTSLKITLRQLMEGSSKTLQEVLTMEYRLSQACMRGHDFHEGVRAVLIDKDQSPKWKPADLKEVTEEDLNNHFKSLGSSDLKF

[3] = target: T2, COMT (Homo sapiens, UniProt P21964); assay: Capture assay with CPT-224 followed by anti-COMT / streptavidin Western Blot; assay type: binding; conditions: for competition of COMT capturing (anti-COMT Western Blot): active capture compound, competitor; for competition of crosslinking of COMT with CPT-224 (anti-Streptavidin Western Blot): recombinant COMT
T2 construct: His; host or cells: E. coli BL21
T2 sequence (P21964 1-221 isoform P21964-2): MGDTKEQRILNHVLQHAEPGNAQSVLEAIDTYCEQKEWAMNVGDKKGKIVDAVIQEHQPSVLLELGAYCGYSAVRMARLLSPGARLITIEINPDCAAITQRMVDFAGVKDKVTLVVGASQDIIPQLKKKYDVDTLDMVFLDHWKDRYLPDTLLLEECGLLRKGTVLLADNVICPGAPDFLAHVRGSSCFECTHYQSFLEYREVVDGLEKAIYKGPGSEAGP

[4] = target: T2, COMT; assay: COMT activity microplate assay (aesculetin methylation, fluorometric); assay type: biochemical
[5] = test system: HepG2 cells; assay: Mitochondrial toxicity assessment (Glu/Gal), ATPlite / Mitochondrial ToxGlo assay; assay type: cell-based, human; conditions: for IC50 in galactose media compared to glucose media: ATP content, HepG2 cells; for mitochondrial cytotoxicity: HepG2 cells (FIG. 7)
[6] = target: T1, HIBCH; assay: Capture assay with CPT-224 followed by anti-HIBCH / streptavidin Western Blot; assay type: binding; design: made in house; host or cells: E. coli BL21; conditions: for competition of crosslinking of HIBCH with CPT-224 (anti-Streptavidin Western Blot): recombinant HIBCH; for competition of HIBCH capturing (anti-HIBCH Western Blot): CPT-224, competitor
[7] = target: T3, COMT (Homo sapiens, UniProt P21964); assay: CCMS differential competition and dose-dependent capturing, HepG2 lysate; assay type: binding; conditions: for competition of COMT capture, dose-dependent capturing: CPT-224 5 μM to 40 nM; for Fc: fold change assay vs competition, 50 μM competitor; for Fc / MS/MS: CPT-224 1 μM; for MS/MS: with 50 μM competitor, HepG2 lysate
T3 construct: performing CCMS experiments in the hepatoma-derived cell line HepG2; host or cells: HepG2 lysate
T3 sequence (P21964 1-271): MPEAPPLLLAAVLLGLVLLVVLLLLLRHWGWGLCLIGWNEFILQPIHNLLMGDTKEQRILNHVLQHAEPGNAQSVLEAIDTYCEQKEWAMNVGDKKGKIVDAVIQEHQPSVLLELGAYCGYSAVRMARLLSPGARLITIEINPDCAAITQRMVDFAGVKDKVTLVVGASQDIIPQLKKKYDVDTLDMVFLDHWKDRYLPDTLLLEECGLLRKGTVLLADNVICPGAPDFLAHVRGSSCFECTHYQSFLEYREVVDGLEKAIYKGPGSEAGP

[8] = target: T4, GCDH (Homo sapiens, UniProt Q92947); assay: CCMS differential competition, HepG2 lysate, active capture compound CPT-224; assay type: binding; conditions: CPT-224 1 μM; for Fc: fold change assay vs competition, 50 μM competitor; for MS/MS: with 50 μM competitor, HepG2 lysate
T4 construct: performing CCMS experiments in the hepatoma-derived cell line HepG2; host or cells: HepG2 lysate
T4 sequence (Q92947 45-438): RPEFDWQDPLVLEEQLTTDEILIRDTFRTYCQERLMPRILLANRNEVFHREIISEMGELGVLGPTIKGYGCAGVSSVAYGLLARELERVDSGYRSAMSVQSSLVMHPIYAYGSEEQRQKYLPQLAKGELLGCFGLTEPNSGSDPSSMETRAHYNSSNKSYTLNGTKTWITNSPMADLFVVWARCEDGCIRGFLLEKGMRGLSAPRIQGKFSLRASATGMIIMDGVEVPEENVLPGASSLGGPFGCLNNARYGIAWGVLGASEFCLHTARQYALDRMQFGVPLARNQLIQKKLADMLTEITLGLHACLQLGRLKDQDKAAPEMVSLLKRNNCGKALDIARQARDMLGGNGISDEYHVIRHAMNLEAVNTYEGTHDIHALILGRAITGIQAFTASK

[9] = target: T5, CCBL2 (Homo sapiens, UniProt Q6YP21); assay: as above; assay type: binding; conditions: CPT-224 1 μM; for Fc: fold change assay vs competition, 50 μM competitor; for MS/MS: with 50 μM competitor, HepG2 lysate
T5 construct: performing CCMS experiments in the hepatoma-derived cell line HepG2; host or cells: HepG2 lysate

[10] = target: T6, ADI1 (Homo sapiens, UniProt Q9BV57); assay: as above; assay type: binding; conditions: CPT-224 1 μM; for Fc: fold change assay vs competition, 50 μM competitor; for MS/MS: with 50 μM competitor, HepG2 lysate
T6 construct: performing CCMS experiments in the hepatoma-derived cell line HepG2; host or cells: HepG2 lysate
T6 sequence (Q9BV57 1-179): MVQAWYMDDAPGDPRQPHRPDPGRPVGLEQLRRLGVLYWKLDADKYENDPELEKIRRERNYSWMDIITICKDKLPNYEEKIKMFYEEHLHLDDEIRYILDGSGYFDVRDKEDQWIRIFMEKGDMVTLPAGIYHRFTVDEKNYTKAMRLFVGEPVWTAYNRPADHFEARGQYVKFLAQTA

[11] = target: T7, AKR1B10 (Homo sapiens, UniProt O60218); assay: CCMS differential competition, HepG2 lysate, inactive capture compound CPT-220; assay type: binding; conditions: CPT-220 1 μM; for Fc: fold change assay vs competition, 50 μM competitor; for MS/MS: with 50 μM competitor, HepG2 lysate
T7 construct: performing CCMS experiments in the hepatoma-derived cell line HepG2; host or cells: HepG2 lysate

[12] = target: T8, NIPSNAP3A (Homo sapiens, UniProt Q9UFN0); assay: as above; assay type: binding; conditions: CPT-220 1 μM; for Fc: fold change assay vs competition, 50 μM competitor; for MS/MS: with 50 μM competitor, HepG2 lysate
T8 construct: performing CCMS experiments in the hepatoma-derived cell line HepG2; host or cells: HepG2 lysate
T8 sequence (Q9UFN0 1-247): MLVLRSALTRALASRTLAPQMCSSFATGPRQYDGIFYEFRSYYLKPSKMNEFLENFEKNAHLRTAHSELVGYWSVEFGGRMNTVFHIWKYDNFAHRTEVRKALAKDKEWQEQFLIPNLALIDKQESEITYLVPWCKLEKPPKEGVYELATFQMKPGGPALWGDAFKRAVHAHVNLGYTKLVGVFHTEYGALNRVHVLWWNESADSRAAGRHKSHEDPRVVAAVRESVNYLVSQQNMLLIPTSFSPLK

[13] = target: T9, PDXK (Homo sapiens, UniProt O00764); assay: as above; assay type: binding; conditions: CPT-220 1 μM; for Fc: fold change assay vs competition, 50 μM competitor; for MS/MS: with 50 μM competitor, HepG2 lysate
T9 construct: performing CCMS experiments in the hepatoma-derived cell line HepG2; host or cells: HepG2 lysate
T9 sequence (O00764 1-312): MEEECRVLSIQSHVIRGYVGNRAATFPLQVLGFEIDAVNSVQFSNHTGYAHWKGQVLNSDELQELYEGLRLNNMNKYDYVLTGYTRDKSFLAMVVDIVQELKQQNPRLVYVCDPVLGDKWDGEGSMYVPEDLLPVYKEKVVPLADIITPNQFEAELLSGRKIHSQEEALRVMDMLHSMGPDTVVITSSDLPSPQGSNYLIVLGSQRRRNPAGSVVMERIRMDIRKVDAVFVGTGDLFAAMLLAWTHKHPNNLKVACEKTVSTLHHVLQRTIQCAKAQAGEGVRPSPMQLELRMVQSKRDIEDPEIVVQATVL

[14] = target: α-synuclein monomers (Homo sapiens, UniProt P37840); conditions: cited from earlier work
[15] = in vivo; cited from earlier work
[16] = target: Aβ42 protofibrils (Homo sapiens, UniProt P05067); conditions: cited from earlier work
[17] = target: enoyl-acyl carrier protein reductase (InhA) (Mycobacterium tuberculosis, UniProt P9WGR1); conditions: cited from earlier work
Chain of enoyl-acyl carrier protein reductase (InhA) (P9WGR1 whole entry, looked up): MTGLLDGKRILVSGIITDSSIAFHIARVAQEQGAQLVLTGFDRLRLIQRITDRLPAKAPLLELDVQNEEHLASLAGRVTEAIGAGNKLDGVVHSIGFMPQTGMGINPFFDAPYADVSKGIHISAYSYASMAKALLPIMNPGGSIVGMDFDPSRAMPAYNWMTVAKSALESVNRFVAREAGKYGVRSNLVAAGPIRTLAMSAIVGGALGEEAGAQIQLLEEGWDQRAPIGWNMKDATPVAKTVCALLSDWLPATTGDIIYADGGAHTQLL

T5 sequence (Q6YP21 whole entry): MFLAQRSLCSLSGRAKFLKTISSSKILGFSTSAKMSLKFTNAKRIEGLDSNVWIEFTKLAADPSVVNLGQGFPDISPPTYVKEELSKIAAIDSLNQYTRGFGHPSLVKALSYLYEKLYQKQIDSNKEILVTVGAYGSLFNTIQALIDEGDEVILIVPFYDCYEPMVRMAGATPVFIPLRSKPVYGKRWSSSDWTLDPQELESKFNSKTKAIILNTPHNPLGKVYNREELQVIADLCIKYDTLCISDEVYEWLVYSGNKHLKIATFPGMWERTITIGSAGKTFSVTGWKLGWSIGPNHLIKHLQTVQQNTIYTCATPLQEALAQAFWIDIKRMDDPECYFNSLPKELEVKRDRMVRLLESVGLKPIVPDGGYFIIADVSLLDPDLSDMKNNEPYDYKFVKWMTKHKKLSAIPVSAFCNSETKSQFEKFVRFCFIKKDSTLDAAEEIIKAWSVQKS
T7 sequence (O60218 whole entry): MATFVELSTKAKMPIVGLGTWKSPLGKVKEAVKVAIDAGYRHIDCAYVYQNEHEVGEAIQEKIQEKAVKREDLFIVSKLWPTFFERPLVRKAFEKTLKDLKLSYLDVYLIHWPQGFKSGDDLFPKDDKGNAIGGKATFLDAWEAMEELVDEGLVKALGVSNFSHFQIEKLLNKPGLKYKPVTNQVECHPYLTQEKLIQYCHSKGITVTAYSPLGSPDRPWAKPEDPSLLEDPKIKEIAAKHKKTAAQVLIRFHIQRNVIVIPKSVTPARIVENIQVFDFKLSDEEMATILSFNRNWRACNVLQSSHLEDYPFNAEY
Chain of Aβ42 protofibrils (P05067 672-713 limits assumed): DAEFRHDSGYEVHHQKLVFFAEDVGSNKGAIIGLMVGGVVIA

SMILES | mitochondrial membrane potential ([1]; 50 μM) | mitochondrial membrane potential ([1]; 100 μM) | competition of HIBCH capture (dCCMS) [2] | competition of COMT capturing (anti-COMT Western Blot) [3] | competition of crosslinking of COMT with CPT-224 (anti-Streptavidin Western Blot) [3] | pIC50 [4] | IC50 in galactose media compared to glucose media [5] | mitochondrial cytotoxicity [5] | competition of crosslinking of HIBCH with CPT-224 (anti-Streptavidin Western Blot) [6] | competition of COMT capture, dose-dependent capturing [7] | Fc [7] | MS/MS [7] | Fc [8] | MS/MS [8] | Fc [9] | MS/MS [9] | Fc [10] | MS/MS [10] | Fc [11] | MS/MS [11] | other results
CCN(CC)C(=O)c1cc2cc(O)c(O)c([N+](=O)[O-])c2cc1C(=O)N(CC)CC [CPT-401, N2,N2,N3,N3-tetraethyl-6,7-dihydroxy-5-nitro-naphthalene-2,3-dicarboxamide] | more than 50 % of untreated HepG2 cells | 40-50 % of the control | no competition was observed | signals were abolished | competed | 7.27 | much less than for CPT-212 (B1) | low mitochondrial cytotoxicity | no competition | complete competition | 34.2 | 3 | 5.90 | 2.6 | 3.05 | 2.6 | 3.67 | 0.3 | 4.7 | 0.5 | Fc [12]: 7.5; MS/MS [12]: 0; Fc [13]: 16; MS/MS [13]: 0
Cc1ccc(C(=O)c2cc(O)c(O)c([N+](=O)[O-])c2)cc1 [tolcapone, reference compound] | 20-30 % of untreated HepG2 cells | 0-5 % of the control | specifically identified when tolcapone was used as competitor |  |  |  | > 4 fold | mitochondrial toxicant; also recorded: significantly higher than that of entacapone and CPT-401 (A1) | competed | complete competition |  |  |  |  |  |  |  |  |  |  | competition of HIBCH capture, dose-dependent capturing ([2]; CPT-224 5 μM to 40 nM): competed only with tolcapone; binding to HIBCH [2]: identified to bind; inhibition of aggregation of α-synuclein monomers [14]: inhibit aggregation of α-synuclein monomers; toxicity [15]: severe hepatotoxicity in several cases; competition of HIBCH capturing (anti-HIBCH Western Blot) [6]: capturing was abolished; inhibition of aggregation of Aβ42 protofibrils to mature amyloid fibrils [16]: inhibit the aggregation of Aβ42 protofibrils to mature amyloid fibrils; binding and inhibition of InhA [17]: bind and inhibit
CCN(CC)C(=O)/C(C#N)=C/c1cc(O)c(O)c([N+](=O)[O-])c1 [entacapone, reference compound] | more than 50 % of untreated HepG2 cells | 40-50 % of the control |  |  |  |  | a much smaller effect |  |  |  |  |  |  |  |  |  |  |  |  |  | toxicity [15]: more favorable toxicity profile
CCN1C(=O)S/C(=C\c2cc(O)c(O)c([N+](=O)[O-])c2)C1=O [CPT-212] | 20-30 % of untreated HepG2 cells | 0-5 % of the control | specifically competed | signals were abolished | competed | 6.75 |  | significantly higher than that of entacapone and CPT-401 (A1) | competed |  | 10.90 | 5 | 6.34 | 2.3 | 3.40 | 2 | 4.29 | 0.3 | 3.1 | 0 | binding to HIBCH [2]: identified to bind; competition of HIBCH capturing (anti-HIBCH Western Blot) [6]: capturing was abolished; Fc [12]: 3; MS/MS [12]: 0.025; Fc [13]: 24.9; MS/MS [13]: 3.75
